The source of these data is ChEMBL document CHEMBL4804284.

The structures appear in SMILES notation.

This test deals with Tyrosine-protein kinase Yes (Homo sapiens) (UniProt P07947). Kind of test: Inhibition of DNA-tagged human YES assessed as percent of control at 50000 nM by qPCR analysis relative to control. Also noted: scale not given: the % may be the effect or the level left. On the technique in general: In qPCR the cycle at which signal appears reflects the starting amount.
Chain of Tyrosine-protein kinase Yes (Homo sapiens) (P07947 2-543 limits assumed): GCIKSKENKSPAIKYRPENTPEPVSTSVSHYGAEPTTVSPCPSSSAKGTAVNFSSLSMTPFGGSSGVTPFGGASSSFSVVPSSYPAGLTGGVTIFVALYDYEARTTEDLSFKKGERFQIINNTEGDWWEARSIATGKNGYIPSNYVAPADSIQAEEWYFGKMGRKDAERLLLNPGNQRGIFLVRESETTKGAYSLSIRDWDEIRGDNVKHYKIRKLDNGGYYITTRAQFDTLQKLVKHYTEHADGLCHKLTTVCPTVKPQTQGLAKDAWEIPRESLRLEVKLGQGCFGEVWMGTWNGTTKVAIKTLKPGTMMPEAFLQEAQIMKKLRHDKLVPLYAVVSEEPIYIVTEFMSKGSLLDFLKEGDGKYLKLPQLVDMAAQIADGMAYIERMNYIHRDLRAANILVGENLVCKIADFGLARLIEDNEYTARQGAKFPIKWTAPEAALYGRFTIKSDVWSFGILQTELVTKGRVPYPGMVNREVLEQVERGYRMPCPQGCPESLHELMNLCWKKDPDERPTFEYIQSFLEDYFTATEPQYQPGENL

`CN1C(=O)/C(=C2/C(=O)Nc3ccccc32)c2ccccc21`: the Activity is 86%.
